Test results taken from ChEMBL document CHEMBL1165880, “'On water' assisted synthesis and biological evaluation of nitrogen and sulfur containing hetero-1,4-naphthoquinones as potent antifungal and antibacterial agents” (2010).
In brackets after ≈: the same amount, converted by molar mass. Activity calls are given as the source filed them. No cut-off for these calls is given here.

What was measured:
[1] = system: Candida albicans; assay: Antifungal activity against Candida albicans after 48 hrs by micro broth dilution method; type: functional
[2] = system: Aspergillus fumigatus; assay: Antifungal activity against Aspergillus fumigatus after 72 hrs by micro broth dilution method; type: functional
[3] = system: Staphylococcus aureus; assay: Antibacterial activity against Staphylococcus aureus ATCC 25923 after 24 hrs by micro broth dilution method; type: functional
[4] = system: Candida parapsilosis; assay: Antifungal activity against Candida parapsilosis ATCC 22019 after 48 hrs by micro broth dilution method; type: functional
[5] = system: Pseudomonas aeruginosa; assay: Antibacterial activity against Pseudomonas aeruginosa […] at 50 ug/ml after 24 hrs by micro broth dilution method; type: functional, organism-based
[6] = system: Klebsiella pneumoniae; assay: Antibacterial activity against Klebsiella pneumoniae ATCC 27736 after 24 hrs by micro broth dilution method; type: functional
[7] = system: Escherichia coli; assay: Antibacterial activity against Escherichia coli after 24 hrs by micro broth dilution method; type: functional
[8] = system: Trichophyton mentagrophytes; assay: Antifungal activity against Trichophyton mentagrophytes after 96 hrs by micro broth dilution method; type: functional
[9] = system: Cryptococcus neoformans; assay: Antifungal activity against Cryptococcus neoformans after 72 hrs by micro broth dilution method; type: functional

Row | Compound | MIC50 [1] | MIC50 [2] | MIC50 [3] | MIC50 [4] | Activity [5] | MIC50 [6] | MIC50 [7] | MIC50 [8] | MIC50 [9]
1 | O=C1C(Cl)=C(N2CCOCC2)C(=O)c2ccccc21 [2-Chloro-3-morpholino-1,4-naphthoquinone] | 45 µM (≈ 12.5 µg/mL) | 90.1 µM (≈ 25 µg/mL) | 180 µM (≈ 50 µg/mL) | 22.5 µM (≈ 6.25 µg/mL) | inactive | 22.5 µM (≈ 6.25 µg/mL) | 45 µM (≈ 12.5 µg/mL) | 2.81 µM (≈ 0.78 µg/mL) | 22.5 µM (≈ 6.25 µg/mL)
2 | Cc1sc2c(=O)c3ccccc3c(=O)c=2n(C)c1O | 22.9 µM (≈ 6.25 µg/mL) | 22.9 µM (≈ 6.25 µg/mL) | 11.4 µM (≈ 3.12 µg/mL) | 45.7 µM (≈ 12.5 µg/mL) | – | 11.4 µM (≈ 3.12 µg/mL) | 5.71 µM (≈ 1.56 µg/mL) | 5.71 µM (≈ 1.56 µg/mL) | 11.4 µM (≈ 3.12 µg/mL)
3 | C[C@@H]1[C@H](O)[C@@H](C)/C=C/C=C/C=C/C=C/C=C/C=C/C=C/[C@H](O[C@@H]2O[C@H](C)[C@@H](O)[C@H](N)[C@@H]2O)C[C@@H]2O[C@](O)(C[C@@H](O)C[C@@H](O)[C@H](O)CC[C@@H](O)C[C@@H](O)CC(=O)O[C@H]1C)C[C@H](O)[C@H]2C(=O)O [AMPHOTERICIN B] | 0.42 µM (≈ 0.388 µg/mL) | – | – | – | – | – | – | 1.69 µM (≈ 1.56 µg/mL) | 0.84 µM (≈ 0.776 µg/mL)
4 | CCOC(=O)CSC1=C(Cl)C(=O)c2ccccc2C1=O | > 161 µM | > 161 µM | 40.2 µM (≈ 12.5 µg/mL) | > 161 µM | – | 161 µM (≈ 50 µg/mL) | 40.2 µM (≈ 12.5 µg/mL) | > 161 µM | 40.2 µM (≈ 12.5 µg/mL)
5 | O=C1C(Cl)=C(NNc2ccccc2)C(=O)c2ccccc21 | 10.4 µM (≈ 3.12 µg/mL) | 41.9 µM (≈ 12.5 µg/mL) | 83.8 µM (≈ 25 µg/mL) | 20.9 µM (≈ 6.26 µg/mL) | inactive | 83.8 µM (≈ 25 µg/mL) | 83.8 µM (≈ 25 µg/mL) | 1.31 µM (≈ 0.391 µg/mL) | 10.4 µM (≈ 3.12 µg/mL)
6 | O=C(O)CC(SC1=C(Cl)C(=O)c2ccccc2C1=O)C(=O)O (stereo not given) | > 147 µM | 147 µM (≈ 50 µg/mL) | 147 µM (≈ 50 µg/mL) | 147 µM (≈ 50 µg/mL) | inactive | 4.58 µM (≈ 1.56 µg/mL) | 36.7 µM (≈ 12.5 µg/mL) | 36.7 µM (≈ 12.5 µg/mL) | 147 µM (≈ 50 µg/mL)
7 | Cn1c(O)csc2c(=O)c3ccccc3c(=O)c1=2 | 3 µM (≈ 0.778 µg/mL) | 24.1 µM (≈ 6.25 µg/mL) | 3 µM (≈ 0.778 µg/mL) | 6.02 µM (≈ 1.56 µg/mL) | inactive | 3 µM (≈ 0.778 µg/mL) | 24.1 µM (≈ 6.25 µg/mL) | 3 µM (≈ 0.778 µg/mL) | 24.1 µM (≈ 6.25 µg/mL)
8 | O=C1C(=O)c2ccccc2C(O)=C1Sc1ccccc1 | 177 µM (≈ 50 µg/mL) | > 177 µM | 177 µM (≈ 50 µg/mL) | > 177 µM | inactive | 177 µM (≈ 50 µg/mL) | 88.6 µM (≈ 25 µg/mL) | 177 µM (≈ 50 µg/mL) | > 177 µM
9 | CCOC(=O)C(C)SC1=C(Cl)C(=O)c2ccccc2C1=O (stereo not given) | > 154 µM | > 154 µM | 38.5 µM (≈ 12.5 µg/mL) | > 154 µM | – | 154 µM (≈ 50 µg/mL) | 38.5 µM (≈ 12.5 µg/mL) | > 154 µM | 38.5 µM (≈ 12.5 µg/mL)
10 | GENTAMICIN | – | – | 1.63 µM | – | – | 0.82 µM | 0.38 µM | – | –
11 | COC(=O)CSC1=C(Cl)C(=O)c2ccccc2C1=O | > 168 µM | 168 µM (≈ 50 µg/mL) | 42.1 µM (≈ 12.5 µg/mL) | 168 µM (≈ 50 µg/mL) | inactive | 42.1 µM (≈ 12.5 µg/mL) | 42.1 µM (≈ 12.5 µg/mL) | 42.1 µM (≈ 12.5 µg/mL) | 168 µM (≈ 50 µg/mL)
12 | NC[C@H]1O[C@H](O[C@H]2[C@H](O)[C@@H](O[C@H]3O[C@H](CO)[C@@H](O)[C@H](N)[C@H]3O)[C@H](N)C[C@@H]2N)[C@H](N)C[C@@H]1O [TOBRAMYCIN] | – | – | 0.53 µM (≈ 0.248 µg/mL) | – | – | 2.14 µM (≈ 1 µg/mL) | 1.07 µM (≈ 0.5 µg/mL) | – | –
13 | NCC[C@H](O)C(=O)N[C@@H]1C[C@H](N)[C@@H](O[C@H]2O[C@H](CN)[C@@H](O)[C@H](O)[C@H]2O)[C@H](O)[C@H]1O[C@H]1O[C@H](CO)[C@@H](O)[C@H](N)[C@H]1O [AMIKACIN] | – | – | 27.3 µM (≈ 16 µg/mL) | – | – | 1.71 µM (≈ 1 µg/mL) | 1.71 µM (≈ 1 µg/mL) | – | –
14 | CN1CCN(C2=CC(=O)c3c(O)ccc(O)c3C2=O)CC1 | > 173 µM | 173 µM (≈ 50 µg/mL) | 173 µM (≈ 50 µg/mL) | 173 µM (≈ 50 µg/mL) | inactive | 173 µM (≈ 50 µg/mL) | 173 µM (≈ 50 µg/mL) | > 173 µM | > 73.4 µM
15 | CN1CCN(C2=C(Cl)C(=O)c3ccccc3C2=O)CC1 | 5.38 µM (≈ 1.56 µg/mL) | 43.1 µM (≈ 12.5 µg/mL) | 43.1 µM (≈ 12.5 µg/mL) | 21.5 µM (≈ 6.26 µg/mL) | inactive | 21.5 µM (≈ 6.26 µg/mL) | 43.1 µM (≈ 12.5 µg/mL) | 1.34 µM (≈ 0.39 µg/mL) | 21.5 µM (≈ 6.26 µg/mL)
16 | O=C1C(Cl)=C(N2CCCCC2)C(=O)c2ccccc21 | 5.66 µM (≈ 1.56 µg/mL) | 90.7 µM (≈ 25 µg/mL) | 90.7 µM (≈ 25 µg/mL) | 11.3 µM (≈ 3.12 µg/mL) | inactive | 90.7 µM (≈ 25 µg/mL) | 43.4 µM (≈ 12 µg/mL) | 1.42 µM (≈ 0.392 µg/mL) | 22.7 µM (≈ 6.26 µg/mL)
17 | NYSTATIN | 8.42 µM | – | – | – | – | – | – | – | 3.78 µM
18 | O=C(O)CSC1=C(Cl)C(=O)c2ccccc2C1=O | 88.5 µM (≈ 25 µg/mL) | 177 µM (≈ 50 µg/mL) | 44.2 µM (≈ 12.5 µg/mL) | 88.5 µM (≈ 25 µg/mL) | inactive | 22.1 µM (≈ 6.25 µg/mL) | 44.2 µM (≈ 12.5 µg/mL) | 5.52 µM (≈ 1.56 µg/mL) | 88.5 µM (≈ 25 µg/mL)
19 | O=C1C(Cl)=C(N2CCCC2)C(=O)c2ccccc21 | 11.9 µM (≈ 3.11 µg/mL) | 95.4 µM (≈ 25 µg/mL) | 95.4 µM (≈ 25 µg/mL) | 23.9 µM (≈ 6.24 µg/mL) | inactive | 95.4 µM (≈ 25 µg/mL) | 47.7 µM (≈ 12.5 µg/mL) | 1.49 µM (≈ 0.39 µg/mL) | 23.9 µM (≈ 6.24 µg/mL)
20 | O=C1C=C(N2CCCC2)C(=O)c2c(O)ccc(O)c21 | > 193 µM | > 193 µM | 193 µM (≈ 50 µg/mL) | > 193 µM | inactive | 193 µM (≈ 50 µg/mL) | 193 µM (≈ 50 µg/mL) | 96.4 µM (≈ 25 µg/mL) | > 193 µM
21 | OC(Cn1cncn1)(Cn1cncn1)c1ccc(F)cc1F [FLUCONAZOLE] | 3.26 µM (≈ 0.998 µg/mL) | – | – | 3.26 µM (≈ 0.998 µg/mL) | – | – | – | 5.09 µM (≈ 1.56 µg/mL) | 1.63 µM (≈ 0.499 µg/mL)
22 | NC[C@H]1O[C@H](O[C@H]2[C@H](O)[C@@H](O[C@H]3O[C@H](CO)[C@@H](O)[C@H](N)[C@H]3O)[C@H](N)C[C@@H]2N)[C@H](O)[C@@H](O)[C@@H]1O [KANAMYCIN] | – | – | 4.13 µM (≈ 2 µg/mL) | – | – | 66 µM (≈ 32 µg/mL) | 33 µM (≈ 16 µg/mL) | – | –
23 | Clc1ccc(COC(Cn2ccnc2)c2ccc(Cl)cc2Cl)c(Cl)c1 (stereo not given) [MICONAZOLE] | 60.1 µM (≈ 25 µg/mL) | 30 µM (≈ 12.5 µg/mL) | – | – | – | – | – | < 1.87 µM | 30 µM (≈ 12.5 µg/mL)
24 | C=CCNC1=C(Cl)C(=O)c2ccccc2C1=O | 50.5 µM (≈ 12.5 µg/mL) | 101 µM (≈ 25 µg/mL) | 101 µM (≈ 25 µg/mL) | 50.5 µM (≈ 12.5 µg/mL) | inactive | 25.2 µM (≈ 6.25 µg/mL) | 101 µM (≈ 25 µg/mL) | 3.15 µM (≈ 0.78 µg/mL) | 50.5 µM (≈ 12.5 µg/mL)
25 | O=C1C(Cl)=C(SCCS)C(=O)c2ccccc21 | 11 µM (≈ 3.12 µg/mL) | 87.8 µM (≈ 25 µg/mL) | 43.9 µM (≈ 12.5 µg/mL) | 43.9 µM (≈ 12.5 µg/mL) | inactive | 21.9 µM (≈ 6.25 µg/mL) | 87.8 µM (≈ 25 µg/mL) | 1.37 µM (≈ 0.39 µg/mL) | 11 µM (≈ 3.12 µg/mL)
